Experimental data from publication PMC7937321 (Genes and Environment, 2021).

How the values were obtained:
[1] = test system: L5178Y mouse lymphoma cells; details: cited from earlier work
rodent = details: cited from earlier work
[2] = test system: human lymphoblastoid TK6 cells, thymidine kinase gene; test: TK gene mutation assay (TK6 assay, OECD TG490)
TK6 cells = test: Cytotoxicity in the TK6 assay (CE, RS, RSG, RTG); details: for RS: graph sheet, TK6, 24 h
Method: Briefly, test substances were dissolved in an appropriate solvent (DMSO or ethanol) and then serially diluted to prepare final concentrations. […] The 4 h and 24 h treatments were conducted by shaking and static exposures, respectively. After treatment with test substances, cells were centrifuged (1000 rpm, 5 min), supernatants were removed, and cells were washed with a serum-free medium or Hank’s Balanced Salt Solution. After centrifugation (1000 rpm, 5 min) to remove the supernatant, cells (2 × 10^7 cells) were dispersed in an RPMI medium containing 10% serum, and cell concentration was measured. Treated cells were cultured at 37 °C with 5% CO2 condition and used for TK6 assays. At that time, to calculate the cloning efficiency (CE) (Eq. 1), the cells were cultured in a 96-well microplate at a concentration of about 1.6 cells/well for 2 weeks.
CE, the cell colony formation rate, was calculated using Eq. 1 according to the Poisson distribution equation. EW was the number of wells without colonies, and TW was the total number of wells. N was the average number of cells per well (N = 1.6). 1 CE=−lnEW/TW/N
Additionally, CE was adjusted by the following calculation (Eq. 2) due to cell loss when exposure caused cytotoxicity. “The number of cells at the end of the treatment” was the number of cells obtained after centrifugation at the end of the treatment in the above-described exposure treatment of the test substance. The “cell number at the start of treatment” was 2 × 10^7. 2 AdjustedCE=CE×number of cellsatendof treatment/number of cellsatthe start of treatment
CE0 seeding, in which cells were seeded immediately after treatment, and CE3 seeding, in which cells were seeded 3 days after treatment, to examine cell viability in the TK6 assay described below. The relative cell viability RS0 (%) just after the treatment with the test substance was calculated from CE0, following Eq. 3. The survival rate of the negative control group was defined as 100%. 3 RS0%=adjusted CE0 of treatment culture/adjusted CE0 of solvent control×100
The TK6 assay is conducted between 20 and 10% RS0 as a maximum dose if cytotoxicity is observed. […] When the main TK6 assay was difficult to conduct under the condition of RS0 values from 20 to 10%, the test was conducted between 20 and 10% relative total growth (RTG), described later, as a maximum dose.
Besides RS0, relative suspension growth (RSG) and RTG as other cytotoxicity indices (Eq. 4) were used. When cells were cultured for 3 days after treatment with the test substance, suspension cell growth ratio 1 (SG1) was the growth ratio from day 0 to day 1 (cell concentration on day 1/cell concentration on day 0). The suspension cell growth ratio 2 (SG2) was the growth ratio from day 1 to day 2 (cell concentration on day 2/cell concentration on day 1). The RSG value was calculated by dividing the total SG value of the untreated group for 3 days by the total SG value of the treated group for the same 3 days (Eq. 4).
On the third day of culture, CE3 plates for determining plating efficiency and mutant frequency (MF) plates for mutation detection were prepared. CE3 plates were seeded in 96-well microplates at a concentration of about 1.6 cells/well.

[3] = test system: human lymphoblastoid TK6 cells, thymidine kinase gene
[4] = test system: TA1538, TA100, TA98, TA97, TA1535; details: ref [18]-[40], Table 2, cited from earlier work
[5] = TK6, 24 h treatment, -S9 mix, dose 60.00 μg/mL
[6] = TK6, 24 h treatment, -S9 mix, dose 90.00 μg/mL
[7] = TK6, 24 h treatment, -S9 mix, dose 200.0 μg/mL
[8] = TK6, 24 h treatment, -S9 mix, dose 220.0 μg/mL
[9] = short treatment, +S9 mix, dose 62.5 μg/mL
[10] = short treatment, +S9 mix, dose 250 μg/mL
[11] = short treatment, +S9 mix, dose 500 μg/mL
[12] = short treatment, +S9 mix, dose 1000 μg/mL
[13] = short treatment, +S9 mix, dose 2000 μg/mL
[14] = short treatment, -S9 mix, dose 62.50 μg/mL
[15] = short treatment, -S9 mix, dose 500.0 μg/mL
[16] = short treatment, -S9 mix, dose 1000.0 μg/mL
[17] = short treatment, -S9 mix, dose 2000.0 μg/mL
[18] = short treatment, +S9 mix, Day 0, dose 62.5 μg/mL
[19] = short treatment, +S9 mix, Day 0, dose 250 μg/mL
[20] = short treatment, +S9 mix, Day 0, dose 500 μg/mL
[21] = short treatment, +S9 mix, Day 0, dose 1000 μg/mL
[22] = short treatment, +S9 mix, Day 0, dose 2000 μg/mL
[23] = short treatment, -S9 mix, Day 0, dose 62.50 μg/mL
[24] = short treatment, -S9 mix, Day 0, dose 500.0 μg/mL
[25] = short treatment, -S9 mix, Day 0, dose 1000.0 μg/mL
[26] = short treatment, -S9 mix, Day 0, dose 2000.0 μg/mL

CNc1ccc(N(CCO)CCO)cc1[N+](=O)[O-] [HC blue No. 1, reference compound]
mutagenicity in MLA (+S9) ([1]; +S9, ref [68]): positive with weak response
MLA (−S9) ([1]; substance with high purity, −S9, ref [27], [85]): negative
carcinogenicity classification (rodent; ref [84]): carcinogen

O=[N+]([O-])c1cc(N(CCO)CCO)ccc1NCCO [HC blue no2]
%SG [2, 5]: 47.5%
Mut. freq. N-MF [2, 5]: 1.5 ×10-6
Mut. freq. S-MF [2, 5]: 1.4 ×10-6
Mut. freq. T-MF [2, 5]: 2.9 ×10-6
%SG [2, 6]: 74.7%
Mut. freq. N-MF [2, 6]: 0.528 ×10-6
Mut. freq. S-MF [2, 6]: 1.6 ×10-6
Mut. freq. T-MF [2, 6]: 2.1 ×10-6
%SG [2, 7]: 48.2%
Mut. freq. N-MF [2, 7]: 3.7 ×10-6
Mut. freq. S-MF [2, 7]: 3.4 ×10-6
Mut. freq. T-MF [2, 7]: 7.1 ×10-6
%SG [2, 8]: 52.5%
Mut. freq. N-MF [2, 8]: 5.1 ×10-6
Mut. freq. S-MF [2, 8]: 5.7 ×10-6
Mut. freq. T-MF [2, 8]: 10.8 ×10-6
MF ([2]; graph sheet, TK6, 24 h, -S9 mix, dose 60.00 μg/mL): 2.9
MF ([2]; graph sheet, TK6, 24 h, -S9 mix, dose 90.00 μg/mL): 2.1
MF ([2]; graph sheet, TK6, 24 h, -S9 mix, dose 200.0 μg/mL): 7.1
MF ([2]; graph sheet, TK6, 24 h, -S9 mix, dose 220.0 μg/mL): 10.8
%SG [2, 9]: 50.7%
Mut. freq. N-MF [2, 9]: 0.7 ×10-6
Mut. freq. S-MF [2, 9]: 0.7 ×10-6
Mut. freq. T-MF [2, 9]: 1.5 ×10-6
%SG [2, 10]: 22.9%
Mut. freq. N-MF [2, 10]: 2.4 ×10-6
Mut. freq. S-MF [2, 10]: 0.7 ×10-6
Mut. freq. T-MF [2, 10]: 3.0 ×10-6
%SG [2, 11]: 42.4%
Mut. freq. N-MF [2, 11]: 1.9 ×10-6
Mut. freq. S-MF [2, 11]: 1.4 ×10-6
Mut. freq. T-MF [2, 11]: 3.3 ×10-6
%SG [2, 12]: 28.4%
Mut. freq. N-MF [2, 12]: 2.8 ×10-6
Mut. freq. S-MF [2, 12]: 1.1 ×10-6
Mut. freq. T-MF [2, 12]: 3.9 ×10-6
%SG [2, 13]: 48.7%
Mut. freq. N-MF [2, 13]: 1.3 ×10-6
Mut. freq. S-MF [2, 13]: 1.2 ×10-6
Mut. freq. T-MF [2, 13]: 2.5 ×10-6
%SG [2, 14]: 23.1%
Mut. freq. N-MF [2, 14]: 1.5 ×10-6
Mut. freq. S-MF [2, 14]: 0.455 ×10-6
Mut. freq. T-MF [2, 14]: 2.0 ×10-6
%SG [2, 15]: 55.5%
Mut. freq. N-MF [2, 15]: 1.8 ×10-6
Mut. freq. S-MF [2, 15]: 2.3 ×10-6
Mut. freq. T-MF [2, 15]: 4.1 ×10-6
%SG [2, 16]: 26.3%
Mut. freq. N-MF [2, 16]: 2.3 ×10-6
Mut. freq. S-MF [2, 16]: 0.8 ×10-6
Mut. freq. T-MF [2, 16]: 3.1 ×10-6
%SG [2, 17]: 51.7%
Mut. freq. N-MF [2, 17]: 1.8 ×10-6
Mut. freq. S-MF [2, 17]: 1.9 ×10-6
Mut. freq. T-MF [2, 17]: 3.7 ×10-6
Adjusted CE0 (TK6 cells; [5]): 341.6%
CE0 (cell viability on Day 0) (TK6 cells; [5]): 112.0%
CE3 (cell viability on Day 3) (TK6 cells; [5]): 116.0%
RS0 (TK6 cells; [5]): 128.6%
RSG (TK6 cells; [5]): 0.865
Adjusted CE0 (TK6 cells; [6]): 259.2%
CE0 (cell viability on Day 0) (TK6 cells; [6]): 81.6%
CE3 (cell viability on Day 3) (TK6 cells; [6]): 125.0%
RS0 (TK6 cells; [6]): 97.6%
RSG (TK6 cells; [6]): 0.765
Adjusted CE0 (TK6 cells; [7]): 96.6%
CE0 (cell viability on Day 0) (TK6 cells; [7]): 50.2%
CE3 (cell viability on Day 3) (TK6 cells; [7]): 112.0%
RS0 (TK6 cells; [7]): 36.4%
RSG (TK6 cells; [7]): 0.241
Adjusted CE0 (TK6 cells; [8]): 48.2%
CE0 (cell viability on Day 0) (TK6 cells; [8]): 28.3%
CE3 (cell viability on Day 3) (TK6 cells; [8]): 101.2%
RS0 (TK6 cells; [8]): 18.1%
RSG (TK6 cells; [8]): 0.106
CE3 (TK6 cells; as fraction, mutation frequency table, TK6, 24 h treatment, -S9 mix, dose 60.00 μg/mL): 1.160
CE3 (TK6 cells; as fraction, mutation frequency table, TK6, 24 h treatment, -S9 mix, dose 90.00 μg/mL): 1.250
CE3 (TK6 cells; as fraction, mutation frequency table, TK6, 24 h treatment, -S9 mix, dose 200.0 μg/mL): 1.120
CE3 (TK6 cells; as fraction, mutation frequency table, TK6, 24 h treatment, -S9 mix, dose 220.0 μg/mL): 1.012
RS (TK6 cells; -S9 mix, dose 60.00 μg/mL): 128.6
RS (TK6 cells; -S9 mix, dose 90.00 μg/mL): 97.6
RS (TK6 cells; -S9 mix, dose 200.0 μg/mL): 36.4
RS (TK6 cells; -S9 mix, dose 220.0 μg/mL): 18.1
Adjusted CE0 (TK6 cells; [18]): 91.4%
CE0 (TK6 cells; [18]): 81.6%
RS0 (TK6 cells; [18]): 96.7%
Adjusted CE0 (TK6 cells; [19]): 89.0%
CE0 (TK6 cells; [19]): 74.8%
RS0 (TK6 cells; [19]): 94.2%
Adjusted CE0 (TK6 cells; [20]): 80.9%
CE0 (TK6 cells; [20]): 79.3%
RS0 (TK6 cells; [20]): 85.5%
Adjusted CE0 (TK6 cells; [21]): 69.1%
CE0 (TK6 cells; [21]): 59.6%
RS0 (TK6 cells; [21]): 73.1%
Adjusted CE0 (TK6 cells; [22]): 58.5%
CE0 (TK6 cells; [22]): 54.7%
RS0 (TK6 cells; [22]): 61.9%
CE3 (TK6 cells; short treatment, +S9 mix, Day 3, dose 62.5 μg/mL): 92.1%
CE3 (TK6 cells; short treatment, +S9 mix, Day 3, dose 250 μg/mL): 104.6%
CE3 (TK6 cells; short treatment, +S9 mix, Day 3, dose 500 μg/mL): 92.1%
CE3 (TK6 cells; short treatment, +S9 mix, Day 3, dose 1000 μg/mL): 108.2%
CE3 (TK6 cells; short treatment, +S9 mix, Day 3, dose 2000 μg/mL): 104.6%
CE3 (TK6 cells; short treatment, +S9 mix, as fraction, dose 62.5 μg/mL): 0.921
CE3 (TK6 cells; short treatment, +S9 mix, as fraction, dose 250 μg/mL): 1.046
CE3 (TK6 cells; short treatment, +S9 mix, as fraction, dose 500 μg/mL): 0.921
CE3 (TK6 cells; short treatment, +S9 mix, as fraction, dose 1000 μg/mL): 1.082
CE3 (TK6 cells; short treatment, +S9 mix, as fraction, dose 2000 μg/mL): 1.046
RSG (TK6 cells; [9]): 1.016
RSG (TK6 cells; [10]): 1.004
RSG (TK6 cells; [11]): 1.149
RSG (TK6 cells; [12]): 0.770
RSG (TK6 cells; [13]): 0.963
Adjusted CE0 (TK6 cells; [23]): 82.4%
CE0 (TK6 cells; [23]): 77.0%
RS0 (TK6 cells; [23]): 94.7%
Adjusted CE0 (TK6 cells; [24]): 97.6%
CE0 (TK6 cells; [24]): 92.1%
RS0 (TK6 cells; [24]): 112.2%
Adjusted CE0 (TK6 cells; [25]): 99.4%
CE0 (TK6 cells; [25]): 92.1%
RS0 (TK6 cells; [25]): 114.3%
Adjusted CE0 (TK6 cells; [26]): 93.9%
CE0 (TK6 cells; [26]): 92.1%
RS0 (TK6 cells; [26]): 107.9%
CE3 (TK6 cells; short treatment, -S9 mix, Day 3, dose 62.50 μg/mL): 125.0%
CE3 (TK6 cells; short treatment, -S9 mix, Day 3, dose 500.0 μg/mL): 95.0%
CE3 (TK6 cells; short treatment, -S9 mix, Day 3, dose 1000.0 μg/mL): 108.2%
CE3 (TK6 cells; short treatment, -S9 mix, Day 3, dose 2000.0 μg/mL): 89.3%
CE3 (TK6 cells; short treatment, -S9 mix, as fraction, dose 62.50 μg/mL): 1.250
CE3 (TK6 cells; short treatment, -S9 mix, as fraction, dose 500.0 μg/mL): 0.950
CE3 (TK6 cells; short treatment, -S9 mix, as fraction, dose 1000.0 μg/mL): 1.082
CE3 (TK6 cells; short treatment, -S9 mix, as fraction, dose 2000.0 μg/mL): 0.893
RSG (TK6 cells; [14]): 0.906
RSG (TK6 cells; [15]): 1.168
RSG (TK6 cells; [16]): 0.743
RSG (TK6 cells; [17]): 0.681

IC(I)I [Iodoform]
MF at high-dose levels [3]: dose-dependent increase in MF
TK6 assay overall judgment [3]: negative
TK6 assay result (mutant frequency increase, judgment) [3]: Negative
TK mutation assay, Long term [3]: Neg
TK mutation assay, With S9 [3]: Neg
TK mutation assay, Without S9 [3]: Neg
Bacterial reverse mutation assay, With S9 ([4]; with S9): Pos
Bacterial reverse mutation assay, Without S9 ([4]; without S9): Pos
MF ([2]; 6.25 μg/mL, -S9 mix, graph sheet Short-S9): 2.7
%SG ([2]; 6.25 μg/mL, short treatment, -S9 mix): 88.0%
MF ([2]; 50.0 μg/mL, -S9 mix, graph sheet Short-S9): 3.0
%SG ([2]; 50.0 μg/mL, short treatment, -S9 mix): 48.2%
MF ([2]; 100.0 μg/mL, -S9 mix, graph sheet Short-S9): 4.5
%SG ([2]; 100.0 μg/mL, short treatment, -S9 mix): 69.7%
MF ([2]; 200.0 μg/mL, -S9 mix, graph sheet Short-S9): 3.2
%SG ([2]; 200.0 μg/mL, short treatment, -S9 mix): 80.4%
%SG ([2]; 24 h treatment -S9 mix, dose 10.00 μg/mL): 71.6%
%SG ([2]; 24 h treatment -S9 mix, dose 20.00 μg/mL): 71.8%
%SG ([2]; 24 h treatment -S9 mix, dose 30.00 μg/mL): 87.1%
%SG ([2]; 24 h treatment -S9 mix, dose 40.0 μg/mL): 100.0%
%SG ([2]; 24 h treatment -S9 mix, dose 50.0 μg/mL): 100.0%
%SG ([2]; 24 h treatment -S9 mix, dose 60.0 μg/mL): 79.6%
%SG ([2]; 24 h treatment -S9 mix, dose 70.0 μg/mL): 85.6%
%SG ([2]; Short treatment +S9 mix, dose 25 μg/mL): 65.1%
%SG ([2]; Short treatment +S9 mix, dose 50 μg/mL): 57.3%
%SG ([2]; Short treatment +S9 mix, dose 100 μg/mL): 65.1%
%SG ([2]; Short treatment +S9 mix, dose 200 μg/mL): 61.0%
Carcinogenicity Studies (rodent; rodent, ref [20]-[41], Table 2): Neg
